Laboratory results reported in US12692248B2, “Solid state forms of (S)-N-(3-(2-(((R)-1-hydroxypropan-2-yl)amino)-6-morpholinopyridin-4-yl)-4-methylphenyl)-3-(2,2,2-trifluoroethyl)pyrrolidine-1-carboxamide and salts thereof” (PIERRE FABRE MEDICAMENT, priority 2021, dated 2026).
Converted amounts (≈) assume the structure as drawn. Read-outs that look alike come from different tables or passages of the source.

Tests used:
Type in all cases: physicochemical
[1] = Comparison dissolution trials in water and biorelevant media; conditions: for solubility at 0.5 h: read-out: Solubility (mg/mL) 0.5 h; for solubility at 2 h: read-out: Solubility (mg/mL) 2 h; for solubility at 24 h: read-out: Solubility (mg/mL) 24 h
Protocol: Comparison dissolution trials were performed on Compounds 1 and 2. About 20 mg of each sample was weighed into a sample vial and then 4 mL of media was added to make a suspension. All suspensions were shaken at 37° C. with a rate of 200 rpm. […] He pH of the filtrate was measured, and the filter cake was analyzed by XRPD. […] In biorelevant dissolution media FaSSIF and FeSSIF, the solubility of the Compound 1 and Compound 2 were similar.

[2] = Solubility of Compound 1 in solvents
Protocol: Compound 1 is insoluble in n-heptane and water (<1 mg/mL) and soluble (>100 mg/mL) in methanol, ethanol, acetone, tetrahydrofuran, methyl ethyl ketone, ethyl acetate, acetonitrile, isobutanol, isopropyl alcohol and isopropyl acetate. Compound 1 has a solubility of about 60 mg/mL in methyl t-butyl ether.

[3] = Stability at 60° C. and 40° C. at 75% relative humidity for 9 days (UPLC purity, XRPD); conditions: for Purity −3 d: 3 days; for Purity −9 d: 9 days; for XRPD: crystal form check
Protocol: Compound 1 and Compound 2 were evaluated for stability at 60° C. and 40° C. at 75% relative humidity for 9 days. At 0, 3, and 9 days, the samples were dissolved with diluent to prepare a solution for purity analysis by UPLC. Solid samples were also analyzed by XRPD to check the crystal form.

[4] = Dynamic Vapor Sorption (DVS); conditions: for water uptake at 80% RH: 80% relative humidity
Protocol: Dynamic Vapor Sorption (DVS) Moisture sorption/desorption data was collected on a DVS Intrinsic PLUS (SMS, UK). The sample was placed into a tared sample chamber and automatically weighed. The sample was dried at 40° C./0%0 RH until the dm/dt was less than 0.00200 and cooled to 25° C. [table]

[5] = Slurry experiments of amorphous hydrochloride; conditions: one day, XRPD
Protocol: An amorphous solid state form of (S)—N-(3-(2-(((R)-1-hydroxypropan-2-yl)amino)-6-morpholinopyridin-4-yl)-4-methylphenyl)-3-(2,2,2-trifluoroethyl)pyrrolidine-1-carboxamide hydrochloride is attainable. Amorphous (S)—N-(3-(2-(((R)-1-hydroxypropan-2-yl)amino)-6-morpholinopyridin-4-yl)-4-methylphenyl)-3-(2,2,2-trifluoroethyl)pyrrolidine-1-carboxamide hydrochloride was formed by rapid evaporation of 15 mg of Compound 2 dissolved in 0.5 mL of methanol. The solid was confirmed to be amorphous by XRPD. Slurry of amorphous (S)—N-(3-(2-(((R)-1-hydroxypropan-2-yl)amino)-6-morpholinopyridin-4-yl)-4-methylphenyl)-3-(2,2,2-trifluoroethyl)pyrrolidine-1-carboxamide hydrochloride in 0.5 mL of the solvents in Table 13 were prepared. Each suspension was stirred for one day at 50° C. and at RT. Each suspension was filtered and analyzed by XRPD. In each experiment, conversion from amorphous (S)—N-(3-(2-(((R)-1-hydroxypropan-2-yl)amino)-6-morpholinopyridin-4-yl)-4-methylphenyl)-3-(2,2,2-trifluoroethyl)pyrrolidine-1-carboxamide hydrochloride to crystalline Compound 2 was observed.

[6] = simulated gastric fluid, thermodynamic from solid, SGF, 37° C.
[7] = thermodynamic from solid, FaSSIF, 37° C.
[8] = thermodynamic from solid, FeSSIF, 37° C.
[9] = thermodynamic from solid, Water, 37° C.

For `Cc1ccc(NC(=O)N2CC[C@@H](CC(F)(F)F)C2)cc1-c1cc(N[C@H](C)CO)nc(N2CCOCC2)c1` [Compound 1, (S)—N-(3-(2-(((R)-1-hydroxypropan-2-yl)amino)-6-morpholinopyridin-4-yl)-4-methylphenyl)-3-(2,2,2-trifluoroethyl)pyrrolidine-1-carboxamide], the solid form conversion ([1]; FaSSGF, filter cake by XRPD) was “converted to Compound 2”, the “solubility of Compound 1 and Compound 2 compared” value ([1]; FaSSIF and FeSSIF) was “similar” and the “pH of the filtrate” value ([1]; Water medium) was “(pH 6.4)”. For the same compound, the solubility at 0.5 h [1, 6] was 0.48 mg/mL (≈ 920 µM), the solubility at 2 h [1, 6] was 0.35 mg/mL (≈ 671 µM) and the solubility at 24 h [1, 6] was 0.83 mg/mL (≈ 1590 µM). It also gave a solubility at 0.5 h [1, 7] of 0.024 mg/mL (≈ 46 µM), a solubility at 2 h [1, 7] of 0.022 mg/mL (≈ 42.2 µM) and a solubility at 24 h [1, 7] of 0.018 mg/mL (≈ 34.5 µM). For the same compound, the solubility at 0.5 h [1, 8] was 0.15 mg/mL (≈ 288 µM), the solubility at 2 h [1, 8] was 0.17 mg/mL (≈ 326 µM) and the solubility at 24 h [1, 8] was 0.15 mg/mL (≈ 288 µM). The solubility at 0.5 h [1, 9] was 0.004 mg/mL (≈ 7.67 µM), the solubility at 2 h [1, 9] was 0.004 mg/mL (≈ 7.67 µM) and the solubility at 24 h [1, 9] was 0.009 mg/mL (≈ 17.3 µM). For the same compound, the solubility ([1]; thermodynamic from solid, water, 37° C.) was < 9 µg/mL, the solubility ([2]; acetone, organic solvent or mixture) was > 100000 µg/mL and the solubility ([2]; acetonitrile, organic solvent or mixture) was > 100000 µg/mL. The solubility ([2]; ethanol, organic solvent or mixture) was > 100000 µg/mL, the solubility ([2]; ethyl acetate, organic solvent or mixture) was > 100000 µg/mL and the solubility ([2]; isobutanol, organic solvent or mixture) was > 100000 µg/mL. For the same compound, the solubility ([2]; isopropyl acetate, organic solvent or mixture) was > 100000 µg/mL, the solubility ([2]; isopropyl alcohol, organic solvent or mixture) was > 100000 µg/mL and the solubility ([2]; methanol, organic solvent or mixture) was > 100000 µg/mL. For the same compound, the solubility ([2]; methyl ethyl ketone, organic solvent or mixture) was > 100000 µg/mL, the solubility ([2]; methyl t-butyl ether, organic solvent or mixture) was ~60000 µg/mL (≈ 115000 µM) and the solubility ([2]; n-heptane, organic solvent or mixture) was < 1000 µg/mL. For the same compound, the solubility ([2]; tetrahydrofuran, organic solvent or mixture) was > 100000 µg/mL, the solubility ([2]; water) was < 1000 µg/mL and the “Purity −0 d (Area %)” value ([3]; 0 days (initial), UPLC) was 99.43 Area %. The “Purity −3 d” value ([3]; 40° C./75% RH, UPLC) was 99.42 Area %, the “Purity −9 d” value ([3]; 40° C./75% RH, UPLC) was 99.40 Area % and the XRPD ([3]; 40° C./75% RH) was “No change”. For the same compound, the “Purity −3 d” value ([3]; 60° C., UPLC) was 99.39 Area %, the “Purity −9 d” value ([3]; 60° C., UPLC) was 99.42 Area % and the XRPD ([3]; 60° C.) was “No change”. The hygroscopicity ([4]; DVS) was “slightly hygroscopic”, the “water uptake at 80% RH” value ([4]; DVS, 25° C.) was 2% and the “solid form after DVS testing” value ([4]; after DVS testing) was “remained amorphous”.
For `Cc1ccc(NC(=O)N2CC[C@@H](CC(F)(F)F)C2)cc1-c1cc(N[C@H](C)CO)nc(N2CCOCC2)c1.Cl` [amorphous Compound 2, (S)—N-(3-(2-(((R)-1-hydroxypropan-2-yl)amino)-6-morpholinopyridin-4-yl)-4-methylphenyl)-3-(2,2,2-trifluoroethyl)pyrrolidine-1-carboxamide hydrochloride], the “Resulting Solid State Form” value ([5]; slurry in Acetone, 50° C.) was “Form I”, the “Resulting Solid State Form” value ([5]; slurry in Acetone, RT) was “Form I” and the “Resulting Solid State Form” value ([5]; slurry in Ethanol, 50° C.) was “Form I”. For the same compound, the “Resulting Solid State Form” value ([5]; slurry in Ethanol, RT) was “Form I”, the “Resulting Solid State Form” value ([5]; slurry in Ethyl acetate, 50° C.) was “Form I” and the “Resulting Solid State Form” value ([5]; slurry in Ethyl acetate, RT) was “Form I”. For the same compound, the “Resulting Solid State Form” value ([5]; slurry in Water, 50° C.) was “Form I”, the “Resulting Solid State Form” value ([5]; slurry in Water, RT) was “Form I” and the “Resulting Solid State Form” value ([5]; slurry in n-Heptane, 50° C.) was “Form I”. The “Resulting Solid State Form” value ([5]; slurry in n-Heptane, RT) was “Form I”.
In the case of `Br.Cc1ccc(NC(=O)N2CC[C@@H](CC(F)(F)F)C2)cc1-c1cc(N[C@H](C)CO)nc(N2CCOCC2)c1` [Compound 3, (S)—N-(3-(2-(((R)-1-hydroxypropan-2-yl)amino)-6-morpholinopyridin-4-yl)-4-methylphenyl)-3-(2,2,2-trifluoroethyl)pyrrolidine-1-carboxamide hydrobromide], the hygroscopicity ([4]; DVS) is reported as “slightly hydroscopic”, the “water uptake at 80% RH” value ([4]; DVS, 25° C.) is reported as 0.27% and the “water uptake at 90% relative humidity” value ([4]; DVS, 25° C., 90% relative humidity) is reported as 0.45%.
